Measurements taken from patent US7622469B2, “2,4-diamino-1,3,5-triazine derivatives” (Hamari Chemicals, Ltd., priority 2002, dated 2009).
Values after ≈ are worked out from the molar mass of the structure shown.

Tests used:
Assay in all cases: Antibacterial activity test (MIC)
Conditions in all cases: Mueller-Hinton Broth, 37° C., 20 to 24 hours
S. aureus 209PJC = type: cell-based
Experimental: (§1) Regarding compounds obtained in respective Working Examples, in order to investigate antibacterial activity, minimal inhibitory concentration (MIC) was determined according to a standard method of Japanese Society of Chemotherapy.
(§2) As a test bacterium, nine kinds of S. aureus 209PJC, MRSA 97-115, MRSA KM 97-53, MRSA KM97-108, VRE 49, E. coli NIHJ JC-2, P. aeruginosa PAO-1, P. aeruginosa No. 12, P. aeruginosa KM97-5 were used and, as a medium, Mueller-Hinton Broth (DIFCO) was used. One platinum loop of a test bacterium was inoculated into 20 ml of a medium, and static culture was carried out at 37° C. for 16 to 20 hours, and then each bacterium species was diluted with a sterilized physiological saline to 10^5/ml, which was used as a test bacterium solution.
(§3) Then, each compound was dissolved in methanol, subjected to ½ stepwise dilution with a medium to prepare a medium for measuring sensitivity, and each 2 ml was dispensed into a test tube. A compound concentration in a medium was adjusted to 100 μg/ml and its 2^n-fold (n=−10 to 1).
(§4) Numerical values in Tables represent MIC expressed in μg/ml unit.

P. aeruginosa PAO-1 = type: cell-based
Experimental: as §1, §2, §3, §4

E. coli NIHJ JC-2 = type: cell-based
Experimental: as §1, §2, §3, §4

MRSA 97-115 = type: cell-based, methicillin-resistant Staphylococcus aureus
Experimental: as §1, §2, §3, §4

Row | Compound | minimal inhibitory concentration (MIC) (S. aureus 209PJC) [µg/mL] | minimal inhibitory concentration (MIC) (P. aeruginosa PAO-1) [µg/mL] | minimal inhibitory concentration (MIC) (E. coli NIHJ JC-2) [µg/mL] | minimal inhibitory concentration (MIC) (MRSA 97-115) [µg/mL]
1 | CCCCCCCCCC1N=C(N)N=C(N)N1c1ccc(F)c(F)c1F.Cl (stereo not drawn) [compound 30] | 1.6 | 50 | 25 | 3.1
2 | CCCCCCCCCCC1N=C(N)NC(Nc2ccc(F)c(F)c2F)=N1.Cl (stereo not drawn) [compound 32] | 0.8 | 100 | 25 | 1.6
3 | CCCCCCCCCCC1N=C(N)N=C(N)N1c1ccc(F)cc1F.Cl (stereo not drawn) [compound 33] | 1.6 | 50 | 25 | 3.1
4 | CCCCCCCCCCC1N=C(N)NC(Nc2ccc(F)cc2F)=N1 (stereo not drawn) [compound 34] | 1.6 (≈ 4.38 µM) | 100 (≈ 274 µM) | 50 (≈ 137 µM) | 1.6 (≈ 4.38 µM)
5 | CCCCCCCCCCNC1=NC(C)(C)N=C(NCc2ccc(OC)cc2)N1.O=C(O)CC(=O)O [compound 39] | 0.4 | 50 | 25 | 0.8
6 | CCCCCCCCCCNC1=NC(C)(C)N=C(NCc2ccc(OC)cc2)N1.O=C(O)C(=O)O [compound 40] | 0.4 | 25 | 25 | 0.8
7 | CCCCCCCCCCNC1=NC(C)(C)N=C(NCc2ccccc2)N1.O=C(O)C(=O)O [compound 42] | 0.8 | 12.5 | 12.5 | 1.6
8 | CCCCCCCCCNC1=NC(C)(C)N=C(NCc2ccccc2)N1.O=C(O)O [compound 47] | 0.4 | 12.5 | 12.5 | 0.8
9 | CCCCCCCCCCCNC1=NC(C)(C)N=C(NCc2ccccc2)N1.O=C(O)C(=O)O [compound 51] | 0.4 | 100 | 50 | 0.8
10 | CC(=O)O.CCCCCCCCNC1=NC(C)(C)N=C(NCc2ccccc2)N1 [compound 52] | 0.8 | 25 | 12.5 | 1.6
11 | CCCCCCCNC1=NC(CC)(CC)N=C(NCc2ccccc2)N1.Cl [compound 53] | 1.6 | 100 | 50 | 3.1
12 | CC(=O)O.CCCCCCCNC1=NC2(CCCC2)N=C(NCc2ccccc2)N1 [compound 54] | 0.8 | 100 | 50 | 1.6
13 | CCCCCCCCCCNC1=NC(C)(C)N=C(NCCc2ccccc2)N1.O=C(O)CC(=O)O [compound 55] | 0.4 | 50 | 12.5 | 0.8
14 | CC(=O)O.CCCCCCCCNC1=NC(C)(C)N=C(NCCc2ccccc2)N1 [compound 57] | 0.8 | 25 | 25 | 1.6
15 | CC(=O)O.CCCCCCCNC1=NC(C)(C)N=C(NCc2ccc(C)cc2)N1 [compound 59] | 0.8 | 50 | 25 | 1.6
